{
  "source": "paper PMC11033320",
  "about": "“Activation of p53 signaling and regression of breast and prostate carcinoma cells by spirooxindole-benzimidazole small molecules” (Frontiers in Pharmacology, 2024)",
  "key": {"NCI/ADR-RES": {"tested_on": "NCI/ADR-RES", "assay": "NCI anticancer screening, Ovarian Cancer NCI/ADR-RES", "type": "cell-based", "conditions": "Homo sapiens, read-out: % Growth Inhibition (GI %)", "in_short": "(§1)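 The compound went through the Developmental Therapeutics Program's routine 60-cell-line human tumor screen for organic molecules.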"}, "CCRF-CEM": {"tested_on": "CCRF-CEM", "assay": "NCI anticancer screening, Leukemia CCRF-CEM", "type": "cell-based", "conditions": "Homo sapiens, read-out: % Growth Inhibition (GI %)", "in_short": "as §1"}, "TK-10": {"tested_on": "TK-10", "assay": "NCI anticancer screening, Renal Cancer TK-10", "type": "cell-based", "conditions": "Homo sapiens; TK-10, 10 μM; read-out: % Growth Inhibition (GI %)", "in_short": "as §1"}, "HOP-62": {"tested_on": "HOP-62", "assay": "NCI anticancer screening, Non-Small Cell Lung Cancer HOP-62", "type": "cell-based", "conditions": "Homo sapiens; HOP-62, 10 μM; read-out: % Growth Inhibition (GI %)", "in_short": "as §1"}, "A498": {"tested_on": "A498", "assay": "NCI anticancer screening, Renal Cancer A498", "type": "cell-based", "conditions": "Homo sapiens; A498, 10 μM; read-out: % Growth Inhibition (GI %)", "from_the_text": "(§2) The compound has been processed according to standard method NCI-60 Human Tumor Cell Lines Screen for organic compound at development therapeutic program (DTP). Requests for access to this national resource can be submitted online at: […]"}, "MDA-MB-435": {"tested_on": "MDA-MB-435", "assay": "NCI anticancer screening, Melanoma MDA-MB-435", "type": "cell-based", "conditions": "Homo sapiens; MDA-MB-435, 10 μM; read-out: % Growth Inhibition (GI %)", "in_short": "as §1"}, "SW-620": {"tested_on": "SW-620", "assay": "NCI anticancer screening, Colon Cancer SW-620", "type": "cell-based", "conditions": "Homo sapiens; SW-620, 10 μM; read-out: % Growth Inhibition (GI %)", "in_short": "as §1"}, "U251": {"tested_on": "U251", "assay": "NCI anticancer screening, CNS Cancer U251", "type": "cell-based", "conditions": "Homo sapiens, U-251; U251, 10 μM; read-out: % Growth Inhibition (GI %)", "in_short": "as §1"}, "SN12C": {"tested_on": "SN12C", "assay": "NCI anticancer screening, Renal Cancer SN12C", "type": "cell-based", "conditions": "Homo sapiens, read-out: % Growth Inhibition (GI %)", "in_short": "as §1"}, "PC-3 cells": {"tested_on": "PC-3 cells", "assay": "MTT assay anticancer activity, PC-3", "type": "cell-based", "conditions": "Homo sapiens, PC-3, 5 µM, mean ± SEM, read-out: growth inhibition percentage of PC-3", "from_the_text": "MTT method was done as described above."}, "SK-OV-3": {"tested_on": "SK-OV-3", "assay": "NCI anticancer screening, Ovarian Cancer SK-OV-3", "type": "cell-based", "conditions": "Homo sapiens; SK-OV-3, 10 μM; read-out: % Growth Inhibition (GI %)", "from_the_text": "as §2"}, "OVCAR-8": {"tested_on": "OVCAR-8", "assay": "NCI anticancer screening, Ovarian Cancer OVCAR-8", "type": "cell-based", "conditions": "Homo sapiens; OVCAR-8, 10 μM; read-out: % Growth Inhibition (GI %)", "in_short": "as §1"}, "SNB-75": {"tested_on": "SNB-75", "assay": "NCI anticancer screening, CNS Cancer SNB-75", "type": "cell-based", "conditions": "Homo sapiens; SNB-75, 10 μM; read-out: % Growth Inhibition (GI %)", "in_short": "as §1"}, "[1]": {"biological_target": "T1, Mdm2 (residues 1–118 T47W) (Homo sapiens, UniProt Q00987, T47W)", "T1 construct": "Mdm2 (residues 1–118 T47W; 500 nM)", "T1 sequence (Q00987 1-118 T47W)": "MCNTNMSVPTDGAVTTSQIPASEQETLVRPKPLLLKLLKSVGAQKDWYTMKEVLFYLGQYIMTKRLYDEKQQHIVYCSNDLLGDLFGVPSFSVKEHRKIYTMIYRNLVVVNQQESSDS", "assay": "MDM2 binding by microscale thermophoresis (MST)", "method": "MST is a complementary biophysical assay to assess the binding of a small molecule to its receptor. […] Experiments were performed in 50 mM phosphate buffer at pH 7.4 containing 150 mM NaCl, 5 mM DTT, and 5% DMSO. […] Kd values and uncertainties were calculated using the MO Affinity Analysis software."}, "RXF 393": {"tested_on": "RXF 393", "assay": "NCI anticancer screening, Renal Cancer RXF 393", "type": "cell-based", "conditions": "Homo sapiens; RXF 393, 10 μM; read-out: % Growth Inhibition (GI %)", "in_short": "as §1"}, "SK-MEL-5": {"tested_on": "SK-MEL-5", "assay": "NCI anticancer screening, Melanoma SK-MEL-5", "type": "cell-based", "conditions": "Homo sapiens; SK-MEL-5, 10 μM; read-out: % Growth Inhibition (GI %)", "in_short": "as §1"}, "KM12": {"tested_on": "KM12", "assay": "NCI anticancer screening, Colon Cancer KM12", "type": "cell-based", "conditions": "Homo sapiens; KM12, 10 μM; read-out: % Growth Inhibition (GI %)", "in_short": "as §1"}, "EKVX": {"tested_on": "EKVX", "assay": "NCI anticancer screening, Non-Small Cell Lung Cancer EKVX", "type": "cell-based", "conditions": "Homo sapiens, read-out: % Growth Inhibition (GI %)", "in_short": "as §1"}, "SF-268": {"tested_on": "SF-268", "assay": "NCI anticancer screening, CNS Cancer SF-268", "type": "cell-based", "conditions": "Homo sapiens; SF-268, 10 μM; read-out: % Growth Inhibition (GI %)", "in_short": "as §1"}, "DU-145": {"tested_on": "DU-145", "assay": "NCI anticancer screening, DU-145", "type": "cell-based", "conditions": "Homo sapiens; DU-145, 10 μM; read-out: % Growth Inhibition (GI %)", "in_short": "as §1"}, "SNB-19": {"tested_on": "SNB-19", "assay": "NCI anticancer screening, CNS Cancer SNB-19", "type": "cell-based", "conditions": "Homo sapiens; SNB-19, 10 μM; read-out: % Growth Inhibition (GI %)", "in_short": "as §1"}, "HL-60(TB)": {"tested_on": "HL-60(TB)", "assay": "NCI anticancer screening, Leukemia HL-60(TB)", "type": "cell-based", "conditions": "Homo sapiens, read-out: % Growth Inhibition (GI %)", "in_short": "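Tested under the standard NCI-60 Human Tumor Cell Lines Screen protocol for organic compounds, run by the Developmental Therapeutics Program.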"}, "786-0": {"tested_on": "786-0", "assay": "NCI anticancer screening, Renal Cancer 786-0", "type": "cell-based", "conditions": "Homo sapiens; 786-0, 10 μM; read-out: % Growth Inhibition (GI %)", "in_short": "as §1"}, "COLO 205": {"tested_on": "COLO 205", "assay": "NCI anticancer screening, Colon Cancer COLO 205", "type": "cell-based", "conditions": "Homo sapiens; COLO 205, 10 μM; read-out: % Growth Inhibition (GI %)", "from_the_text": "as §2"}, "HOP-92": {"tested_on": "HOP-92", "assay": "NCI anticancer screening, Non-Small Cell Lung Cancer HOP-92", "type": "cell-based", "conditions": "Homo sapiens; HOP-92, 10 μM; read-out: % Growth Inhibition (GI %)", "in_short": "as §1"}, "SF-295": {"tested_on": "SF-295", "assay": "NCI anticancer screening, CNS Cancer SF-295", "type": "cell-based", "conditions": "Homo sapiens; SF-295, 10 μM; read-out: % Growth Inhibition (GI %)", "in_short": "as §1"}, "HCT-116": {"tested_on": "HCT-116", "assay": "NCI anticancer screening, Colon Cancer HCT-116", "type": "cell-based", "conditions": "Homo sapiens; HCT-116, 10 μM; read-out: % Growth Inhibition (GI %)", "in_short": "as §1"}},
  "data": [
    {"smiles": "O=C(c1nc2ccccc2[nH]1)[C@H]1[C@H](c2cccs2)C2CSCN2[C@]12C(=O)Nc1ccccc12", "note": "(stereo partly drawn) [Compound 6e, (3S,6′R)-6'-(1H-Benzo [d]imidazole-2-carbonyl)-7'-(thiophen-2-yl)-3′,6′,7′,7a′-tetrahydro-1′H-spiro [indoline-3.5′-pyrrolo [1,2-c]thiazol]-2-one]", "values": [
      {"measurement": "inhibition at 10 µM", "setting": "NCI/ADR-RES", "value": 102, "unit": "%"},
      {"measurement": "inhibition at 10 µM", "setting": "CCRF-CEM", "value": 104, "unit": "%"},
      {"measurement": "IC50", "setting": "MDA-MB 231 cells", "value": 5.61, "unit": "µM"},
      {"measurement": "inhibition", "setting": "MDA-MB 231 cells; 5 µM", "value": "58.2 ± 1.85", "unit": "%"},
      {"measurement": "inhibition at 10 µM", "setting": "TK-10", "value": 106, "unit": "%"},
      {"measurement": "inhibition at 10 µM", "setting": "HOP-62", "value": 99.5, "unit": "%"},
      {"measurement": "inhibition at 10 µM", "setting": "A498", "value": 79.7, "unit": "%"},
      {"measurement": "inhibition at 10 µM", "setting": "MDA-MB-435", "value": 100, "unit": "%"},
      {"measurement": "inhibition at 10 µM", "setting": "SW-620", "value": 96.7, "unit": "%"},
      {"measurement": "inhibition at 10 µM", "setting": "U251", "value": 100, "unit": "%"},
      {"measurement": "inhibition at 10 µM", "setting": "SN12C", "value": 97.5, "unit": "%"},
      {"measurement": "inhibition at 5 µM", "setting": "PC-3 cells", "value": "58.2 ± 0.729", "unit": "%"},
      {"measurement": "inhibition at 10 µM", "setting": "SK-OV-3", "value": 101, "unit": "%"},
      {"measurement": "inhibition at 10 µM", "setting": "OVCAR-8", "value": 96.8, "unit": "%"},
      {"measurement": "inhibition at 10 µM", "setting": "SNB-75", "value": 85.9, "unit": "%"},
      {"measurement": "Kd", "setting": "[1]", "value": 113, "unit": "µM"},
      {"measurement": "inhibition at 10 µM", "setting": "RXF 393", "value": 112, "unit": "%"},
      {"measurement": "inhibition at 10 µM", "setting": "SK-MEL-5", "value": 99, "unit": "%"},
      {"measurement": "inhibition at 10 µM", "setting": "KM12", "value": 98.8, "unit": "%"},
      {"measurement": "inhibition at 10 µM", "setting": "EKVX", "value": 100, "unit": "%"},
      {"measurement": "inhibition at 10 µM", "setting": "SF-268", "value": 92.4, "unit": "%"},
      {"measurement": "inhibition at 10 µM", "setting": "DU-145", "value": 109, "unit": "%"},
      {"measurement": "inhibition at 10 µM", "setting": "SNB-19", "value": 104, "unit": "%"},
      {"measurement": "inhibition at 10 µM", "setting": "HL-60(TB)", "value": 94.1, "unit": "%"},
      {"measurement": "inhibition at 10 µM", "setting": "786-0", "value": 100, "unit": "%"},
      {"measurement": "inhibition at 10 µM", "setting": "COLO 205", "value": 112, "unit": "%"},
      {"measurement": "inhibition at 10 µM", "setting": "HOP-92", "value": 105, "unit": "%"},
      {"measurement": "inhibition at 10 µM", "setting": "SF-295", "value": 92.6, "unit": "%"},
      {"measurement": "inhibition at 10 µM", "setting": "HCT-116", "value": 96.3, "unit": "%"}
    ]}
  ]
}
